test system: Hep-3B cells; experiment: Cellular assay: EPO secretion in Hep-3B cells; assay type: cell-based, human; design: EPO secretion, % of control compound: dose or concentration left out as unconfirmed; conditions: 24 h, compound at 100 μM (10 μM or 100 μM), EPO secretion as percentage of control compound 7-[(4-Chloro-phenyl)-(5-methyl-isoxazol-3-ylamino)-methyl]-quinolin-8-ol

SMILES | Cellular % EPO Stimulation [%]
O=C(O)c1cnn(-c2nc3cc(-c4ccc(OCc5ccccc5)cc4)ccc3[nH]2)c1 [Example 16, 1-[5-(4-Benzyloxy-phenyl)-1H-benzoimidazol-2-yl]-1H-pyrazole-4-carboxylic Acid] | 6.97
O=C(O)c1cnn(-c2nc3ccccc3[nH]2)c1 [Example 1, 1-(1H-Benzoimidazol-2-yl)-1H-pyrazole-4-carboxylic Acid] | 7.1
O=C(O)c1cnn(-c2nc3cc(Br)ccc3[nH]2)c1 [Example 6, 1-(5-Bromo-1H-benzoimidazol-2-yl)-1H-pyrazole-4-carboxylic Acid] | 9.91
Cc1c(Br)cc2nc(-n3cc(C(=O)O)cn3)[nH]c2c1C [Example 26, 1-(5-Bromo-6,7-dimethyl-1H-benzoimidazol-2-yl)-1H-pyrazole-4-carboxylic Acid] | 11.9
Cc1nn(-c2nc3cc(Br)ccc3[nH]2)c(C)c1C(=O)O [Example 21, 1-(5-Bromo-1H-benzoimidazol-2-yl)-3,5-dimethyl-1H-pyrazole-4-carboxylic Acid] | 7.24
Cc1ccc2[nH]c(-n3cc(C(=O)O)cn3)nc2c1C [Example 10, 1-(4,5-Dimethyl-1H-benzoimidazol-2-yl)-1H-pyrazole-4-carboxylic Acid] | 10.7
O=C(O)c1cn(-c2nc3cc(Br)ccc3[nH]2)nc1C(F)(F)F [Example 19, 1-(5-Bromo-1H-benzoimidazol-2-yl)-3-trifluoromethyl-1H-pyrazole-4-carboxylic Acid] | 20.52
O=C(O)c1cnn(-c2nc3cc(-c4ccc(O)cc4)ccc3[nH]2)c1 [Example 23, 1-[5-(4-Hydroxy-phenyl)-1H-benzoimidazol-2-yl]-1H-pyrazole-4-carboxylic Acid] | 6.49
O=C(O)c1cnn(-c2nc3cc(-c4cccc(OCc5ccccc5)c4)ccc3[nH]2)c1 [Example 15, 1-[5-(3-Benzyloxy-phenyl)-1H-benzoimidazol-2-yl]-1H-pyrazole-4-carboxylic Acid] | 10.77
COc1cc2nc(-n3cc(C(=O)O)cn3)[nH]c2cc1OC [Example 9, 1-(5,6-Dimethoxy-1H-benzoimidazol-2-yl)-1H-pyrazole-4-carboxylic Acid] | 4.26
O=C(O)c1cnn(-c2nc3cc(OC(F)(F)F)ccc3[nH]2)c1 [Example 11, 1-(5-Trifluoromethoxy-1H-benzoimidazol-2-yl)-1H-pyrazole-4-carboxylic Acid] | 123.68
O=C(O)c1cnn(-c2nc3cc(Cl)ccc3[nH]2)c1 [Example 25, 1-(5-Chloro-1H-benzoimidazol-2-yl)-1H-pyrazole-4-carboxylic Acid] | 71.87
O=C(O)c1cnn(-c2nc3cc(-c4cccc(C(F)(F)F)c4)ccc3[nH]2)c1 [Example 17, 1-[5-(3-Trifluoromethyl-phenyl)-1H-benzoimidazol-2-yl]-1H-pyrazole-4-carboxylic Acid] | 5.8
O=C(O)c1cnn(-c2nc3c(Cl)cc(C(F)(F)F)cc3[nH]2)c1 [Example 8, 1-(4-Chloro-6-trifluoromethyl-1H-benzoimidazol-2-yl)-1H-pyrazole-4-carboxylic Acid] | 20.97
O=C(O)c1cnn(-c2nc3cc(-c4cccc(O)c4)ccc3[nH]2)c1 [Example 24, 1-[5-(3-Hydroxy-phenyl)-1H-benzoimidazol-2-yl]-1H-pyrazole-4-carboxylic Acid] | 11.15
O=C(O)c1cnn(-c2nc3cc(-c4ccc(Cl)c(Cl)c4)ccc3[nH]2)c1 [Example 18, 1-[5-(3,4-Dichloro-phenyl)-1H-benzoimidazol-2-yl]-1H-pyrazole-4-carboxylic Acid] | 15.3
O=C(O)c1cnn(-c2nc3cc(-c4cccc(OCc5cccc(Cl)c5)c4)ccc3[nH]2)c1 [Example 12, 1-{5-[3-(3-Chloro-benzyloxy)-phenyl]-1H-benzoimidazol-2-yl}-1H-pyrazole-4-carboxylic Acid] | 8.76
O=C(O)c1cnn(-c2nc3cc(-c4cccc(OCc5ccccc5Cl)c4)ccc3[nH]2)c1 [Example 13, 1-{5-[3-(2-Chloro-benzyloxy)-phenyl]-1H-benzoimidazol-2-yl}-1H-pyrazole-4-carboxylic Acid] | 18
Cc1cc2nc(-n3cc(C(=O)O)cn3)[nH]c2cc1C [Example 5, 1-(5,6-Dimethyl-1H-benzoimidazol-2-yl)-1H-pyrazole-4-carboxylic Acid] | 2.1
COc1ccc2[nH]c(-n3cc(C(=O)O)cn3)nc2c1 [Example 7, 1-(5-Methoxy-1H-benzoimidazol-2-yl)-1H-pyrazole-4-carboxylic Acid] | 16.8

same assay, conditions: Homo sapiens, Hep3B, 24 h, EPO secretion as percentage of control compound 7-[(4-Chloro-phenyl)-(5-methyl-isoxazol-3-ylamino)-methyl]-quinolin-8-ol, read-out: Cellular % EPO Stimulation

SMILES | EPO secretion, % of control compound [%]
O=C(O)c1cnn(-c2nc3cc(C(F)(F)F)c(Cl)cc3[nH]2)c1 [Example 30, 1-(6-Chloro-5-trifluoromethyl-1H-benzoimidazol-2-yl)-1H-pyrazole-4-carboxylic Acid] | 129
O=C(O)c1cnn(-c2nc3cc(C(F)(F)F)c(F)cc3[nH]2)c1 [Example 129, 1-(6-Fluoro-5-trifluoromethyl-1H-benzoimidazol-2-yl)-1H-pyrazole-4-carboxylic Acid] | 70.8
CCCSc1cc2nc(-n3cc(C(=O)O)cn3)[nH]c2cc1F [Example 152, 1-(6-Fluoro-5-propylsulfanyl-1H-benzoimidazol-2-yl)-1H-pyrazole-4-carboxylic Acid] | 91.4
O=C(O)c1cnn(-c2nc3cc(OC(F)(F)F)cc(Br)c3[nH]2)c1 [Example 29, 1-(7-Bromo-5-trifluoromethoxy-1H-benzoimidazol-2-yl)-1H-pyrazole-4-carboxylic Acid] | 57.5
O=C(O)c1cnn(-c2nc3cc(-c4cccc(OCc5ccc(Cl)cc5)c4)ccc3[nH]2)c1 [Example 14, 1-{5-[3-(4-Chloro-benzyloxy)-phenyl]-1H-benzoimidazol-2-yl}-1H-pyrazole-4-carboxylic Acid] | 20.1
O=C(O)c1cnn(-c2nc3cc(C(F)(F)F)ccc3[nH]2)c1 [Example 3, 1-(5-Trifluoromethyl-1H-benzoimidazol-2-yl)-1H-pyrazole-4-carboxylic Acid] | 110

target: human PHD2181-417 (Homo sapiens (Human), UniProt Q9GZT9); experiment: PHD2 enzyme activity assay ([14C]-succinic acid production); assay type: biochemical; conditions: PHD2181-417 polypeptide, HIF-1α peptide 10 μM, [5-14C]-2-oxoglutaric acid; 30 min pre-incubation; tested 10 μM to 3 nM;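 note: reaction ran 10 min with compound in Tris pH 7.5 buffer with catalase, DTT and ascorbate, labelled succinate freed of leftover 2-oxoglutarate by DNP precipitation, then beta counted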
Sequence (Q9GZT9 181-417): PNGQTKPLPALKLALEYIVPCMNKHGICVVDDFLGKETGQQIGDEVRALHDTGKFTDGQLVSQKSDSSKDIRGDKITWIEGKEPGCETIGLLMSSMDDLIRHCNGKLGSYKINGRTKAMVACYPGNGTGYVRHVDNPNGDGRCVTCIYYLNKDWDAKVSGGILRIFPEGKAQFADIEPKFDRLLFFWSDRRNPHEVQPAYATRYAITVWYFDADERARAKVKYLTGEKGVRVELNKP

Enzyme pIC50 | SMILES
6.7 | O=C(O)c1cnn(-c2nc3cc(SCc4ccc(C(F)(F)F)cc4)c(Cl)cc3[nH]2)c1 [Example 170, 1-[6-Chloro-5-(4-trifluoromethyl-benzylsulfanyl)-1H-benzoimidazol-2-yl]-1H-pyrazole-4-carboxylic Acid]
7.2 | CC(C)Sc1cc2[nH]c(-n3cc(C(=O)O)cn3)nc2cc1C(F)(F)F [Example 73, 1-(6-Isopropylsulfanyl-5-trifluoromethyl-1H-benzoimidazol-2-yl)-1H-pyrazole-4-carboxylic Acid]
7.4 | CC(C)S(=O)(=O)c1cc2[nH]c(-n3cc(C(=O)O)cn3)nc2cc1OC(F)(F)F [Example 105, 1-[6-(Propane-2-sulfonyl)-5-trifluoromethoxy-1H-benzoimidazol-2-yl]-1H-pyrazole-4-carboxylic Acid]
7.4 | CC(C)S(=O)(=O)c1cc2[nH]c(-n3cc(C(=O)O)cn3)nc2cc1C(F)(F)F [Example 103, 1-[6-(Propane-2-sulfonyl)-5-trifluoromethyl-1H-benzoimidazol-2-yl]-1H-pyrazole-4-carboxylic Acid]
7.7 | Cc1ccc(CS(=O)(=O)c2cc3nc(-n4cc(C(=O)O)cn4)[nH]c3cc2Cl)cc1 [Example 178, 1-(6-Chloro-5-p-tolylmethanesulfonyl-1H-benzoimidazol-2-yl)-1H-pyrazole-4-carboxylic Acid]
6.9 | CC(C)Sc1cc2nc(-n3cc(C(=O)O)cn3)[nH]c2cc1F [Example 153, 1-(6-Fluoro-5-isopropylsulfanyl-1H-benzoimidazol-2-yl)-1H-pyrazole-4-carboxylic Acid]
6.7 | O=C(O)c1cnn(-c2nc3cc(SCc4ccc(C(F)(F)F)cc4C(F)(F)F)c(Cl)cc3[nH]2)c1 [Example 171, 1-[5-(2,4-Bis-trifluoromethyl-benzylsulfanyl)-6-chloro-1H-benzoimidazol-2-yl]-1H-pyrazole-4-carboxylic Acid]
7.4 | CCCS(=O)(=O)c1cc2nc(-n3cc(C(=O)O)cn3)[nH]c2cc1F [Example 157, 1-(6-Fluoro-5-propylsulfonyl-1H-benzoimidazol-2-yl)-1H-pyrazole-4-carboxylic Acid]
7.5 | CCCS(=O)(=O)c1cc2[nH]c(-n3cc(C(=O)O)cn3)nc2cc1C(F)(F)F [Example 104, 1-[6-(Propane-1-sulfonyl)-5-trifluoromethyl-1H-benzoimidazol-2-yl]-1H-pyrazole-4-carboxylic Acid]
7.6 | O=C(O)c1cnn(-c2nc3cc(S(=O)(=O)Cc4ccc(C(F)(F)F)cc4C(F)(F)F)c(Cl)cc3[nH]2)c1 [Example 180, 1-[5-(2,4-Bis-trifluoromethyl-phenylmethanesulfonyl)-6-chloro-1H-benzoimidazol-2-yl]-1H-pyrazole-4-carboxylic Acid]
7.3 | CC(C)S(=O)(=O)c1cc2nc(-n3cc(C(=O)O)cn3)[nH]c2cc1F [Example 158, 1-(6-Fluoro-5-isopropylsulfonyl-1H-benzoimidazol-2-yl)-1H-pyrazole-4-carboxylic Acid]
7.7 | O=C(O)c1cnn(-c2nc3cc(S(=O)(=O)Cc4ccc(C(F)(F)F)cc4)c(Cl)cc3[nH]2)c1 [Example 179, 1-[6-Chloro-5-(4-trifluoromethyl-phenylmethanesulfonyl)-1H-benzoimidazol-2-yl]-1H-pyrazole-4-carboxylic Acid]
